# Assay results as given in patent US20160280699A1, “SUBSTITUTED PHENYLALANINE DERIVATIVES” (BAYER PHARMA AKTIENGESELLSCHAFT, priority 2013, published 2016).
# pIC50: −log10 of the molar value. Where a name gives a salt, the structure may show the parent alone.
# Key:
# human factor XIa = target: T1, human factor XIa (Homo sapiens, UniProt P03951); experiment: Measurement of FXIa inhibition (fluorogenic peptide substrate Boc-Glu(OBzl)-Ala-Arg-AMC); assay type: biochemical; settings: factor XIa from Kordia, 15 min preincubation, 30 min at 22° C., fluorescence
# T1 construct: purchased Kordia
# T1 sequence (P03951 388-625 limits assumed): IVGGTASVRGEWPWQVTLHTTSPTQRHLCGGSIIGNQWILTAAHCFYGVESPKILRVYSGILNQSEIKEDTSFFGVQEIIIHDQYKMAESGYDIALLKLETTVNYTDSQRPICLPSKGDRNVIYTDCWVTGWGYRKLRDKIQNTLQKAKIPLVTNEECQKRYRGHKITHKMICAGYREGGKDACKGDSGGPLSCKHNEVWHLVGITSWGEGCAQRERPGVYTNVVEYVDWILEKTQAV
# T1 sequence (P03951 19-387 partner limits assumed): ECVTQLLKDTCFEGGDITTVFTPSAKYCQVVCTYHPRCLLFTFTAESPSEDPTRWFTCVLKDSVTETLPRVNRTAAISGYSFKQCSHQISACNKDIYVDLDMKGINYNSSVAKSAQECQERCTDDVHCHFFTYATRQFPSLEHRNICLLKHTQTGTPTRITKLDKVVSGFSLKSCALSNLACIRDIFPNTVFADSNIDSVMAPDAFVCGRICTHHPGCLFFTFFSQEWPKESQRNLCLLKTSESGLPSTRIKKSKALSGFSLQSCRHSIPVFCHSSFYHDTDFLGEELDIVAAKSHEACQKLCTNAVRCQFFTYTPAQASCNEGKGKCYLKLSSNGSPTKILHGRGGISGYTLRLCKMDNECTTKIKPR
# Description: The factor XIa inhibition of the substances according to the invention is determined using a biochemical test system which utilizes the reaction of a peptidic factor XIa substrate to determine the enzymatic activity of human factor XIa. Here, factor XIa cleaves from the peptic factor XIa substrate the C-terminal aminomethylcoumarin (AMC), the fluorescence of which is measured. The determinations are carried out in microtitre plates.
# Test substances are dissolved in dimethyl sulphoxide and serially diluted in dimethyl sulphoxide (3000 μM to 0.0078 μM; resulting final concentrations in the test: 50 μM to 0.00013 μM). In each case 1 μl of the diluted substance solutions is placed into the wells of white microtitre plates from Greiner (384 wells). Subsequently, the following are added successively: 20 μl of assay buffer (50 mmol/l Tris buffer pH 7.4; 100 mmol/l sodium chloride; 5 mmol/l calcium chloride; 0.1% bovine serum albumin) and 20 μl of factor XIa from Kordia (0.45 nM in assay buffer). After 15 min of incubation, the enzyme reaction is started by addition of 20 μl of the factor XIa substrate Boc-Glu(OBzl)-Ala-Arg-AMC dissolved in assay buffer (10 μM in assay buffer) from Bachem, the mixture is incubated at room temperature (22° C.) for 30 min and fluorescence is then measured (excitation: 360 nm, emission: 460 nm). The measured emissions of the test batches with test substance are compared to those of control batches without test substance (only dimethyl sulphoxide instead of test substance in dimethyl sulphoxide), and IC50 values are calculated from the concentration/activity relationships.
# human and animal plasma = experiment: Determination of anticoagulatory activity: activated partial thromboplastin time (aPTT) in plasma; assay type: biochemical; settings: concentration of test substance which brings about a 1.5-fold extension of the aPTT, 37° C., C.K. Prest kit
# Description: The anticoagulatory activity of the test substances is determined in vitro in human and animal plasma (for example mouse, rat, rabbit, pig and dog plasma). To this end, blood is drawn off in a mixing ratio of sodium citrate/blood of 1:9 using a 0.11 molar sodium citrate solution as receiver. Immediately after the blood has been drawn off, it is mixed thoroughly and centrifuged at about 4000 g for 15 minutes. The supernatant is pipetted off.
# The activated partial thromboplastin time (aPTT) is determined in the presence of varying concentrations of test substance or the corresponding solvent using a commercial test kit (C.K. Prest from Diagnostica Stago). The test compounds are incubated with the plasma and the PTT reagent (cephalin, kaolin) at 37° C. for 3 minutes. Coagulation is then started by addition of a 25 mM aqueous calcium chloride solution, and the time when coagulation occurs is determined. The concentration of test substance which brings about a 1.5-fold extension of the aPTT is determined Activity data from this test are listed in Table B below: […]
Structure (SMILES),pIC50 (human factor XIa),aPTT (human and animal plasma) [µmol/L]
"COc1ccc(-c2ccc(C[C@H](NC(=O)[C@H]3CC[C@H](CN)CC3)C(=O)Nc3ccc4c(=O)[nH][nH]c4c3)cc2)c(C)n1 [Example 30, N-alpha-{[trans-4-(Aminomethyl)cyclohexyl]carbonyl}-4-(6-methoxy-2-methylpyridin-3-yl)-N-(3-oxo-2,3-dihydro-1H-indazol-6-yl)-L-phenylalaninamide hydrochloride]",8.17,0.34
"Cc1nc(N)ncc1-c1ccc(C[C@H](NC(=O)C2CCC(CN)CC2)C(=O)Nc2ccc(-c3nnn[nH]3)cc2)cc1 (stereo partly drawn) [Example 55, N-alpha-{[trans-4-(Aminomethyl)cyclohexyl]carbonyl}-4-(2-amino-4-methylpyrimidin-5-yl)-N-[4-(1H-tetrazol-5-yl)phenyl]-L-phenylalaninamide hydrochloride]",8.52,0.22
"CN(C)c1ncc(-c2ccc(C[C@H](NC(=O)[C@H]3CC[C@H](CN)CC3)C(=O)Nc3ccc(-c4nn[nH]n4)cc3)cc2)c(OCc2ccccc2)n1 [Example 22, N-alpha-{[trans-4-(Aminomethyl)cyclohexyl]carbonyl}-4-[4-(benzyloxy)-2-(dimethylamino)-pyrimidin-5-yl]-N-[4-(2H-tetrazol-5-yl)phenyl]-L-phenylalaninamide hydrochloride]",8.21,0.27
"CN(C)CCCOc1ccc(-c2ccc(C[C@H](NC(=O)C3CCC(CN)CC3)C(=O)Nc3ccc(-c4nnc(Cl)[nH]4)cc3)cc2)cn1 (stereo partly drawn) [Example 56, N-alpha-{[trans-4-(Aminomethyl)cyclohexyl]carbonyl}-N-[4-(3-chloro-4H-1,2,4-triazol-5-yl)phenyl]-4-{6-[3-(dimethylamino)propoxy]pyridin-3-yl}-L-phenylalaninamide hydrochloride]",8.02,0.25
"Cc1cc(N2CCNCC2)ncc1-c1ccc(C[C@H](NC(=O)[C@H]2CC[C@H](CN)CC2)C(=O)Nc2ccc(-c3nnc(Cl)[nH]3)cc2)cc1 [Example 48, N-alpha-{[trans-4-(Aminomethyl)cyclohexyl]carbonyl}-N-[4-(3-chloro-4H-1,2,4-triazol-5-yl)phenyl]-4-[4-methyl-6-(piperazin-1-yl)pyridin-3-yl]-L-phenylalaninamide hydrochloride]",8.46,0.11
"NC[C@H]1CC[C@H](C(=O)N[C@@H](Cc2ccc(-c3cnccc3Cl)cc2)C(=O)Nc2ccc(-c3nn[nH]n3)cc2)CC1 [Example 12, N-alpha-{[trans-4-(Aminomethyl)cyclohexyl]carbonyl}-4-(4-chloropyridin-3-yl)-N-[4-(2H-tetrazol-5-yl)phenyl]-L-phenylalaninamide hydrochloride]",8.23,0.43
"NC[C@H]1CC[C@H](C(=O)N[C@@H](Cc2ccc(-c3ccncc3Cl)cc2)C(=O)Nc2ccc(-c3nn[nH]n3)cc2)CC1 [Example 15, N-alpha-{[trans-4-(Aminomethyl)cyclohexyl]carbonyl}-4-(3-chloropyridin-4-yl)-N-[4-(2H-tetrazol-5-yl)phenyl]-L-phenylalaninamide hydrochloride]",8.55,0.14
"NC[C@H]1CC[C@H](C(=O)N[C@@H](Cc2ccc(-c3ccnc(N4CCOCC4)c3Cl)cc2)C(=O)Nc2ccc(-c3nn[nH]n3)cc2)CC1 [Example 43, N-alpha-{[trans-4-(Aminomethyl)cyclohexyl]carbonyl}-4-[3-chloro-2-(morpholin-4-yl)pyridin-4-yl]-N-[4-(2H-tetrazol-5-yl)phenyl]-L-phenylalaninamide hydrochloride]",8.74,0.37
"Cc1cnccc1-c1ccc(C[C@H](NC(=O)[C@H]2CC[C@H](CN)CC2)C(=O)Nc2ccc3c(=O)[nH][nH]c3c2)cc1 [Example 23, N-alpha-{[trans-4-(Aminomethyl)cyclohexyl]carbonyl}-4-(3-methylpyridin-4-yl)-N-(3-oxo-2,3-dihydro-1H-indazol-6-yl)-L-phenylalaninamide hydrochloride]",8.44,0.24
"COc1nc(N2CCN(C)CC2)ncc1-c1ccc(C[C@H](NC(=O)[C@H]2CC[C@H](CN)CC2)C(=O)Nc2ccc(-c3nn[nH]n3)cc2)cc1 [Example 31, N-alpha-{[trans-4-(Aminomethyl)cyclohexyl]carbonyl}-4-[4-methoxy-2-(4-methylpiperazin-1-yl)pyrimidin-5-yl]-N-[4-(2H-tetrazol-5-yl)phenyl]-L-phenylalaninamide hydrochloride]",7.82,0.22
"Cc1ncccc1-c1ccc(C[C@H](NC(=O)[C@H]2CC[C@H](CN)CC2)C(=O)Nc2ccc3c(=O)[nH][nH]c3c2)cc1 [Example 27, N-alpha-{[trans-4-(Aminomethyl)cyclohexyl]carbonyl}-4-(2-methylpyridin-3-yl)-N-(3-oxo-2,3-dihydro-1H-indazol-6-yl)-L-phenylalaninamide hydrochloride]",8.25,0.24
"NC[C@H]1CC[C@H](C(=O)N[C@@H](Cc2ccc(-c3cccnc3C(F)(F)F)cc2)C(=O)Nc2ccc(-c3nnn[nH]3)cc2)CC1 [Example 50, N-alpha-{[trans-4-(Aminomethyl)cyclohexyl]carbonyl}-N-[4-(1H-tetrazol-5-yl)phenyl]-4-[2-(trifluoromethyl)pyridin-3-yl]-L-phenylalaninamide hydrochloride]",8.89,0.16
"NC[C@H]1CC[C@H](C(=O)N[C@@H](Cc2ccc(-c3ccc(N4CCOCC4)nc3)cc2)C(=O)Nc2ccc(-c3nn[nH]n3)cc2)CC1 [Example 7, N-alpha-{[trans-4-(Aminomethyl)cyclohexyl]carbonyl}-4-[6-(morpholin-4-yl)pyridin-3-yl]-N-[4-(2H-tetrazol-5-yl)phenyl]-L-phenylalaninamide hydrochloride]",8.66,0.29
"NC[C@H]1CC[C@H](C(=O)N[C@@H](Cc2ccc(-c3cccnc3Cl)cc2)C(=O)Nc2ccc(-c3nnn[nH]3)cc2)CC1 [Example 3, N-alpha-{[trans-4-(Aminomethyl)cyclohexyl]carbonyl}-4-(2-chloropyridin-3-yl)-N-[4-(1H-tetrazol-5-yl)phenyl]-L-phenylalaninamide hydrochloride]",8.64,0.24
"CN(C)CCCOc1ccc(-c2ccc(C[C@H](NC(=O)[C@H]3CC[C@H](CN)CC3)C(=O)Nc3ccc(-c4noc(=O)[nH]4)cc3)cc2)cn1 [Example 19, N-alpha-{[trans-4-(Aminomethyl)cyclohexyl]carbonyl}-4-{6-[3-(dimethylamino)propoxy]pyridin-3-yl}-N-[4-(5-oxo-4,5-dihydro-1,2,4-oxadiazol-3-yl)phenyl]-L-phenylalaninamide hydrochloride]",7.80,0.17
"NC[C@H]1CC[C@H](C(=O)N[C@@H](Cc2ccc(-c3ccc(C(F)(F)F)nc3)cc2)C(=O)Nc2ccc(-c3nn[nH]n3)cc2)CC1 [Example 18, N-alpha-{[trans-4-(Aminomethyl)cyclohexyl]carbonyl}-N-[4-(2H-tetrazol-5-yl)phenyl]-4-[6-(trifluoromethyl)pyridin-3-yl]-L-phenylalaninamide hydrochloride]",8.57,0.33
"CN1CCN(S(=O)(=O)c2cncc(-c3ccc(C[C@H](NC(=O)[C@H]4CC[C@H](CN)CC4)C(=O)Nc4ccc(-c5nnn[nH]5)cc4)cc3)c2)CC1 [Example 2, N-alpha-{[trans-4-(Aminomethyl)cyclohexyl]carbonyl}-4-{5-[(4-methylpiperazin-1-yl)sulphonyl]pyridin-3-yl}-N-[4-(1H-tetrazol-5-yl)phenyl]-L-phenylalaninamide hydrochloride]",8.28,0.28
"CS(=O)(=O)c1cncc(-c2ccc(C[C@H](NC(=O)[C@H]3CC[C@H](CN)CC3)C(=O)Nc3ccc(-c4nn[nH]n4)cc3)cc2)c1 [Example 39, N-alpha-{[trans-4-(Aminomethyl)cyclohexyl]carbonyl}-4-[5-(methylsulphonyl)pyridin-3-yl]-N-[4-(2H-tetrazol-5-yl)phenyl]-L-phenylalaninamide hydrochloride]",7.82,0.38
